# According to US11730792B2, “Coversin (OmCI) for the treatment of autoimmune blistering diseases: bullous pemphigoid (BP) and epidermolysis bullosa acquisita (EBA)” (VOLUTION IMMUNO PHARMACEUTICALS SA, priority 2017, dated 2023):
# Entries after “also recorded” stand apart in the source; their conditions may differ.
# T1: Ornithodoros moubata Coversin (EV576, OmCI), amino acids 19 to 168 of SEQ ID NO: 2 (SEQ ID NO: 4) (Ornithodoros moubata, UniProt Q5YD59)
# T1 sequence (Q5YD59 19-168): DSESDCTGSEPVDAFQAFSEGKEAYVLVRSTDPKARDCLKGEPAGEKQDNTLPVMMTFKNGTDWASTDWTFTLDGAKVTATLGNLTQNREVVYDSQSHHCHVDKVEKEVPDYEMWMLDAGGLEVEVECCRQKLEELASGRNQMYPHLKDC
# Tests used:
# [1] = molecular target: T1, Ornithodoros moubata Coversin (EV576, OmCI), amino acids 19 to 168 of SEQ ID NO: 2 (SEQ ID NO: 4); experiment: LTB4 binding to Coversin by fluorescence titration
# Method: This may be carried out by may be carried out as follows:
# Purified 100 nM solutions of Coversin, in 2 mL PBS were applied in a quartz cuvette (10 mm path length; Hellma, Malheim, Germany) equipped with a magnetic stirrer. Temperature was adjusted to 20° C. and, after equilibrium was reached, protein Tyr/Trp fluorescence was excited at 280 nm (slit width: 15 nm). The fluorescence emission was measured at 340 nm (slit width: 16 nm) corresponding to the emission maximum. […] For calculation of the KD value, data was normalized to an initial fluorescence intensity of 100%, the inner filter effect was corrected using a titration of 3 μM N-acetyl-tryptophanamide solution and data was plotted against the corresponding ligand concentration. Then, non-linear least squares regression based on the law of mass action for bimolecular complex formation was used to fit the data with Origin software version 8.5 (OriginLab, Northampton, Mass., USA) using a published formula (Breustedt et al., 2006).
# Experimental EBA [2] = details: ref [44], cited from earlier work
# [3] = tested on: Antibody transfer EBA-like skin inflammation; experiment: Passive EBA mouse model, Coversin administered therapeutically from day 5 (Example 2); type: in vivo, C57Bl/6J WT mice; details: for Two-way ANOVA, vehicle control versus Coversin: all doses used, N=5 per group
# Method: The study included the following experimental groups, with 5 mice in each experimental group: • 1. Vehicle (PBS) control group • 2. 125 μg/kg Coversin 2× daily s.c. • 3. 2500 μg/kg Coversin 2× daily s.c.
# Antibody transfer EBA-like skin inflammation was induced, as described in Sezin et al.
# The treatment of mice with Coversin started on Day 5 of the experiment (Day 0=day of first administration of anti-COL7 antibody). Afterwards, mice were injected 12 hourly s.c. in the scapular region with Coversin or vehicle control until the end of the experiment.
# Disease severity was scored. […] The percentage of the absolute body surface affected by skin lesions (ABSA) was calculated. To score the disease, the mice were anesthetized every other day with a mixture of ketamine/xylazine administered i.p. starting day 4 of the experiment.
# Two independent experiments were conducted according to this protocol.
# Prior to the beginning of the experiment mean weight of the mice was calculated and 2.5 mg/kg and 0.125 mg/kg of the drug were prepared freshly to a final volume of 100 μl in PBS pH 7.2. The drug was prepared freshly, twice daily, 30 minutes before the final injection into the mice. Thereafter, based on the mean weight of the mice the drug was adjusted with PBS pH 7.2 to a concentration appropriate to provide the required mg/kg dose in a final volume of 100 μl. Drug was prepared freshly twice daily, 30 minutes before the final application into the animals. As a vehicle control 100 μl of PBS pH 7.2 was injected s.c into the mice.
# ABSA between treatment groups was evaluated by two-way ANOVA conducted using GraphPad Prism 7.
# C5 [4] = molecular target: T2, C5 (Homo sapiens, UniProt P01031); experiment: Prevention of C5 cleavage by C5 convertase in human serum; type: biochemical; set-up: from tissue; host or cells: human serum
# Description: (§1) Coversin was isolated from the salivary glands of the tick Ornithodoros moubata. Coversin is an outlying member of the lipocalin family and is the first lipocalin family member shown to inhibit complement activation. Coversin inhibits the classical, alternative and lectin complement pathways by binding to C5 and preventing its cleavage by C5 convertase into C5a and C5b, thus inhibiting both the production of C5a, which is an active (e.g. proinflammatory) peptide, and the formation of the MAC.
# Target sequence in this assay (P01031 678-1676 limits assumed): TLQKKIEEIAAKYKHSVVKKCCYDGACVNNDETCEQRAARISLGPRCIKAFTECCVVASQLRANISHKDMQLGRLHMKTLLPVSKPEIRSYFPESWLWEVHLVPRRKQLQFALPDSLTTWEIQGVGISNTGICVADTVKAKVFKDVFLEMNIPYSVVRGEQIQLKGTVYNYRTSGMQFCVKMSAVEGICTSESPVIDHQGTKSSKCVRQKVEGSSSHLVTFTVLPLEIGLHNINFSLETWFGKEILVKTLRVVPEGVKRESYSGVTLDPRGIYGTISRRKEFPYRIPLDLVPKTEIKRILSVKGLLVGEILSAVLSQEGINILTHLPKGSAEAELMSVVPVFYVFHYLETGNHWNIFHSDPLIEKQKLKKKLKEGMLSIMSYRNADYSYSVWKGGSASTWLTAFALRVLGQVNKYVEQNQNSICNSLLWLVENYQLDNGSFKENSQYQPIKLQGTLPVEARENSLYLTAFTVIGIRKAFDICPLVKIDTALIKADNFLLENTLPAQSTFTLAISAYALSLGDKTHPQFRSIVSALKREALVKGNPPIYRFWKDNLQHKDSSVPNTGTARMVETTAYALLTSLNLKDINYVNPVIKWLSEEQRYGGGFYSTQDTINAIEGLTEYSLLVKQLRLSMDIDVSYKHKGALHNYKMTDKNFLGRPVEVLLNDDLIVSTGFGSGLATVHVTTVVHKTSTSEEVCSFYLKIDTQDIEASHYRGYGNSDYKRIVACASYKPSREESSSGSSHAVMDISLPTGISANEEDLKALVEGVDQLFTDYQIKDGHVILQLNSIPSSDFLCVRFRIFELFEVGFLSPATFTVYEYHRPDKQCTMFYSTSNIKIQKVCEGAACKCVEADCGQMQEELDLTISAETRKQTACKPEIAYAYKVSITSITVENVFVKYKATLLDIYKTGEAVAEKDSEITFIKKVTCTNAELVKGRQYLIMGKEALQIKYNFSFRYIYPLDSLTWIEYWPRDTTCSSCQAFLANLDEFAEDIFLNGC
# Target sequence in this assay (P01031 19-673 partner limits assumed): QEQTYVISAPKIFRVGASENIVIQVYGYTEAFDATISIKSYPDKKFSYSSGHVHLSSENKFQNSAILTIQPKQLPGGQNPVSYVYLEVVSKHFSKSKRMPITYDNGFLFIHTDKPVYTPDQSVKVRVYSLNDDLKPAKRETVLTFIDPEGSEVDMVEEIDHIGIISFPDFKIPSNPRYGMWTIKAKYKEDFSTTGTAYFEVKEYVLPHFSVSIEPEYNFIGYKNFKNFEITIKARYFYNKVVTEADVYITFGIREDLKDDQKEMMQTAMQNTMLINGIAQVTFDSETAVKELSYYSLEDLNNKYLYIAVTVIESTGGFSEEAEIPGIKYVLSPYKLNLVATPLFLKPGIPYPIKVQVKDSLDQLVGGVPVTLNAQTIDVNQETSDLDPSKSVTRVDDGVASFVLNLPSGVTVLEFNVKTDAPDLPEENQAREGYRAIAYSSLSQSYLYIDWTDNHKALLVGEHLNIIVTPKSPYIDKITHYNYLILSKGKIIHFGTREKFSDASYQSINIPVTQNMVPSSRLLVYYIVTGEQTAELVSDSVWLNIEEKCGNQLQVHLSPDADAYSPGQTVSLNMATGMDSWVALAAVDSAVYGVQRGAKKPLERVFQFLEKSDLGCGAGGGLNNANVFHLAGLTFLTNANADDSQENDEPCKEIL
# C5 [5] = molecular target: T3, C5 (Mus musculus, UniProt P06684); experiment: Prevention of C5 cleavage by C5 convertase in mouse serum; type: biochemical
# T3 construct: from tissue; host or cells: mouse serum
# Description: as §1
# experimental EBA [6] = experiment: Antibody transfer EBA model, Coversin administered prophylactically (Example 1); type: in vivo, mice; set-up: Two-way ANOVA, vehicle control versus Coversin: dose or concentration left out as unconfirmed; details: for Two-way ANOVA, vehicle control versus Coversin: combined experiments 1 and 2; for percentage ABSA: prophylactic
# Method: (§2) Antibody transfer EBA was induced using a modified version of the protocol described by Sitaru et al., 2005 [43]. Five mice were tested in each treatment group. […] Mice were injected subcutaneously twice daily with three varying doses of Coversin starting […] before the first injection of anti-Col7 IgG (day −2). This application was continued throughout the experiment until its last day on day 11. In the control groups the mice received only the vehicle subcutaneously, or 20 mg/kg methylprednisolone once daily.
# To generate antibodies directed to murine type VII collagen (“anti-COL7”), New Zealand White rabbits were immunized with 200 μg of a protein mixture containing three different recombinant proteins (“Col7A, B, and C”) derived from the non-collagenous 1 (NC1) domain of collagen VII together with incomplete Freund's adjuvant. IgGs were isolated from the serum of immunized rabbits by use of protein G, and afterwards IgGs were affinity-purified with his-Col7 to specifically obtain rabbit anti-Col7 IgG. Antibodies were quality checked by determining the titer and the potency in the cryosection assay.
# (§3) Starting on day 4, the extent of skin lesions was scored in each individual mouse every other day. […] The percentage of the total body surface affected by skin lesions (ABSA) was calculated.
# Two independent experiments were conducted.
# C5 [7] = molecular target: T4, C5 (Rattus norvegicus, UniProt P08650); experiment: Prevention of C5 cleavage by C5 convertase in rat serum; type: biochemical
# T4 construct: from tissue; host or cells: rat serum
# Description: as §1
# C5 [8] = molecular target: T2, C5; details: surface plasmon resonance, ref [31]; cited from earlier work
# Target sequence in this assay (P01031 19-1676): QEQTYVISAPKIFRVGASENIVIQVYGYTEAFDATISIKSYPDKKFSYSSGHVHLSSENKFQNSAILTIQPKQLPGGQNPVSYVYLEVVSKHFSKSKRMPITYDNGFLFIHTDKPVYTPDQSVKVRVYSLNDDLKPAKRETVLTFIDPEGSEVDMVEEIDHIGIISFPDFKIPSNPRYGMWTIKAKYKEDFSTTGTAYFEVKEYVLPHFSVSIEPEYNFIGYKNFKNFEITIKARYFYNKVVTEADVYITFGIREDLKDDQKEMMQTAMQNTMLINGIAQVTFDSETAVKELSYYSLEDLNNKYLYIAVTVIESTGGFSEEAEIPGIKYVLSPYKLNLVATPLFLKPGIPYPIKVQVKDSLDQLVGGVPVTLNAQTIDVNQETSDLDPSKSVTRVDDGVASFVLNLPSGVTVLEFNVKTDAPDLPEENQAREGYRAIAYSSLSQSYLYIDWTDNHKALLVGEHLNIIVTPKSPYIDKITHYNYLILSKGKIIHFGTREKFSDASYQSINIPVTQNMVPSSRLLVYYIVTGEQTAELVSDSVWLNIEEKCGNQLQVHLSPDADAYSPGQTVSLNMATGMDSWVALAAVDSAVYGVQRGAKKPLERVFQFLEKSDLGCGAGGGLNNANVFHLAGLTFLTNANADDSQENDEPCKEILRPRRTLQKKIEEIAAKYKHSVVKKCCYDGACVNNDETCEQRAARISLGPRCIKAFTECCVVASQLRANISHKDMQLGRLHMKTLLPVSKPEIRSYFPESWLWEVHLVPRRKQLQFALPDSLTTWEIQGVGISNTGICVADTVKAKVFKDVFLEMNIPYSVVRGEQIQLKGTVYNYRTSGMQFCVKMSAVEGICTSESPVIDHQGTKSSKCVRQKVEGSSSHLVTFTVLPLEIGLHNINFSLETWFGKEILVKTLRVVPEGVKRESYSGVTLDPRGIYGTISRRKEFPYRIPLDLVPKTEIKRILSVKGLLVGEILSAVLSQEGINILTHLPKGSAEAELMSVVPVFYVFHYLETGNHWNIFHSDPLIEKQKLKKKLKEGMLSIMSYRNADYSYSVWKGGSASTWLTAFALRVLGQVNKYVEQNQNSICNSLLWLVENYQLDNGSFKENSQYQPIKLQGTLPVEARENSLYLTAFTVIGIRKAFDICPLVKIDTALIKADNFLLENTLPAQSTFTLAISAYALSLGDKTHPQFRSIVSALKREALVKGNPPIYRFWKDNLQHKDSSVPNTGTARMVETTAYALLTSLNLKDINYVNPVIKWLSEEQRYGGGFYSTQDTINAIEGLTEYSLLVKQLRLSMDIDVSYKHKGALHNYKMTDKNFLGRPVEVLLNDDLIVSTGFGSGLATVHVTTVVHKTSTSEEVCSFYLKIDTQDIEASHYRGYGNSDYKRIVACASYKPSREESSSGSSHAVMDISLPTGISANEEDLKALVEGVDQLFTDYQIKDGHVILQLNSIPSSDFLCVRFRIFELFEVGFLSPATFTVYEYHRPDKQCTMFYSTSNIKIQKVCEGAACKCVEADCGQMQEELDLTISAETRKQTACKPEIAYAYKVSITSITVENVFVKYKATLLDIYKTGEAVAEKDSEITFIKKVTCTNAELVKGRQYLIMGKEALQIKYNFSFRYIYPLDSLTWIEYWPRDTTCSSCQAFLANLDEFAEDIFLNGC
# experimental EBA [9] = experiment: Experimental EBA, prophylactic PAS-L-Coversin versus Coversin (Example 4); type: in vivo, mice; details: 2.5 mg/kg Coversin; for Clinical score of experimental EBA: prophylactic
# Method: as §2, §3
# In a further experiment, the effect of PAS-L-Coversin was assessed. Mice were treated with 0.1 mg/kg, 10 mg/kg, 1 mg/kg PAS-L-Coversin, or 2.5 mg/kg Coversin, with the experiment being carried out as described above. […] The sequence of the L-Coversin sequence is a variant of the mature Coversin sequence (SEQ ID NO: 4) in which the following residues have been modified: Ala44 to Asn, Met116 to Gln, Leu117 to Ser, Gly121 to Ala, Leu122 to Asp, Glu123 to Ala and Asp149 to Gly, (referred to as variant 2, sequence is dsesdctgse pvdafqafse gkeayvlvrs tdpkardclk gepNgekqdn tlpvmmtfkn gtdwastdwt ftldgakvta tlgnitqnre vvydsqshhc hvdkvekevp dyemwQSdag ADAveveccr qkleelasgr nqmyphlkGc (SEQ ID NO:23), where the changes relative to the native Coversin sequence of SEQ ID NO:4 are in capitals). Because of the higher molecule weight of the PAS-L-Cov, 10 mg/kg PAS-L-Cov corresponds to 2.5 mg/kg Coversin. In the first experiment (FIG. 6A) the 10 mg/kg dose but not 1 mg/kg or 0.1 mg/kg dose of PAS-L-Coversin reduced ABSA compared to control. In the second experiment (FIG. 6B), the 10 mg/kg dose and the 1 mg/kg but not the 0.1 mg/kg dose of PAS-L-Coversin reduced ABSA compared to control.
# C5 [10] = molecular target: T2, C5; experiment: C5 binding of L-Coversin (method not given); details: mutated Coversin sequence (variant 2)
# Target sequence in this assay (P01031 19-1676): as above
# [11] = LTB4 binding of L-Coversin (method not given); details: mutated Coversin sequence (variant 2)
# T4 sequence (P08650 19-1681): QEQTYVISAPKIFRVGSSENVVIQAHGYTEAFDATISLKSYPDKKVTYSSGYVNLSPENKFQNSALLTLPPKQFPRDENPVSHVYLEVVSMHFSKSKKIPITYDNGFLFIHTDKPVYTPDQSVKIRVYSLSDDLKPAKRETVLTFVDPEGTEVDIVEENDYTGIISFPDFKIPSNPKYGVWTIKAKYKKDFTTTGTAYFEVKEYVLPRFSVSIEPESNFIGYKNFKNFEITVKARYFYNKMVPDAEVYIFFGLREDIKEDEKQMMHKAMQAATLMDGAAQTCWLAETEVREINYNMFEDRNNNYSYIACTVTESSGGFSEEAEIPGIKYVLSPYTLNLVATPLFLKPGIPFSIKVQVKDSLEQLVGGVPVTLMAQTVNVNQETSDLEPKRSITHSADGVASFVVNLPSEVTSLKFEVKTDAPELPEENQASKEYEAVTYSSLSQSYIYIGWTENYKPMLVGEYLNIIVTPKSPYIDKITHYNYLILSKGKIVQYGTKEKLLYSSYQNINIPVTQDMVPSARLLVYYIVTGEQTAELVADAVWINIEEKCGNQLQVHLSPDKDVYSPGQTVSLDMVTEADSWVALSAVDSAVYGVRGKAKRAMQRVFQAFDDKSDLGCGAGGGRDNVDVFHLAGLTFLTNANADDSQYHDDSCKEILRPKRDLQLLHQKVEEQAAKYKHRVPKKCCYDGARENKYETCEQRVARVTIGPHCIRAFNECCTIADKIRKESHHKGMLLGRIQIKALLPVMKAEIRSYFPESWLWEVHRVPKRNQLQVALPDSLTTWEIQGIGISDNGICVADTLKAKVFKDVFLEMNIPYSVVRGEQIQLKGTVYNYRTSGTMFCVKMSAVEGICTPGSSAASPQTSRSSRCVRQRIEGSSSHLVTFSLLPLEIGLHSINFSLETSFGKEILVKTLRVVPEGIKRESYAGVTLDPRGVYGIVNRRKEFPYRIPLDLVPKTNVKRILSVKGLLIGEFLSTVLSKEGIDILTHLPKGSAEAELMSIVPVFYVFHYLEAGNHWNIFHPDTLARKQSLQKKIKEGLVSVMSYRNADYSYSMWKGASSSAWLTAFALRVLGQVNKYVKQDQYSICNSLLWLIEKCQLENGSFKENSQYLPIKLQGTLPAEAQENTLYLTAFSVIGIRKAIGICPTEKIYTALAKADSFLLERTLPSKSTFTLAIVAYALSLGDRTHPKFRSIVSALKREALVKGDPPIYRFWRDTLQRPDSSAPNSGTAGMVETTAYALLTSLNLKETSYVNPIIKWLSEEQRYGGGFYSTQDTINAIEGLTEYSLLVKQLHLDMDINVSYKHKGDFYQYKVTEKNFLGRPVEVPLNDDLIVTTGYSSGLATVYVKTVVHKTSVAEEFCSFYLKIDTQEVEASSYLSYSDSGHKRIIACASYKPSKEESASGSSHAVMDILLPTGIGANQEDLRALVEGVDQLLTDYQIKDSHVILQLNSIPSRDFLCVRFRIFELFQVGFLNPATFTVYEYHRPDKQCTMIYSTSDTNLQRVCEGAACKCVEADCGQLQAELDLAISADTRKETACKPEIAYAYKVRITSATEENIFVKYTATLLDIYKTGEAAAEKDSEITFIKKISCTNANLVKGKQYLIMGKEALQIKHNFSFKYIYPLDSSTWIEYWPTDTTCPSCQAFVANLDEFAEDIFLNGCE
molecule,measurement,setting,value
"CCCCC/C=C\C[C@@H](O)/C=C/C=C/C=C\[C@@H](O)CCCC(=O)O [LTB4, Leukotriene B4]",Kd,[1],0.2 to 0.3 nM
"CC(c1cc2ccccc2s1)N(O)C(N)=O (stereo not shown) [Zileuton, N-[1-(1-benzothien-2-yl)ethyl]-N-hydroxyurea]",clinical score day 7,"Experimental EBA [2]; 0.6-0.8 mg/mouse/day in drinking water, female mice, control group 9.2±0.7",5.9±0.5 % of affected surface body area
same,disease severity as compared to control group,"Experimental EBA [2]; from day 7 until end-point, 0.6-0.8 mg/mouse/day",significantly reduced disease severity
"Coversin: tick Ornithodoros moubata protein, amino acids 19 to 168 of SEQ ID NO: 2 (SEQ ID NO: 4); binds C5 and LTB4","Two-way ANOVA, vehicle control versus Coversin","[3]; Experiment 1 (FIG. 7), females",significant differences
same,ABSA,"[3]; Experiment 1, 2.5 mg/kg Coversin, vehicle about 7%",effective in reducing ABSA
same,"skin inflammation measured by absolute body surface area affected (ABSA), dose dependence","[3]; Experiment 1, females, 125 and 2500 μg/kg 2× daily s.c. from day 5",dose-dependently ameliorated skin inflammation
same,"Two-way ANOVA, vehicle control versus Coversin","[3]; Experiment 2 (FIG. 8), males",significant differences
same,"skin inflammation, dose dependence","[3]; Experiment 2 (FIG. 8), males, 125 and 2500 μg/kg 2× daily s.c. from day 5",dose-dependently ameliorated skin inflammation
same,skin inflammation measured by ABSA,"[3]; Experiment 2, 2.5 mg/kg Coversin, vehicle peaked at about 4%",significantly (P<0.01) ameliorated skin inflammation
same,deaths during treatment,"[3]; the two experiments, up to day 12",no deaths
same,"IC50, binding C5 and preventing its cleavage by C5 convertase",C5 [4],approximately 0.02 mg/ml
same,"IC50, binding C5 and preventing its cleavage by C5 convertase",C5 [5],approximately 0.02 mg/ml
same,"Two-way ANOVA, vehicle control versus Coversin",experimental EBA [6]; dose 250,statistically significant difference
same,"Two-way ANOVA, vehicle control versus Coversin",experimental EBA [6]; dose 2500,statistically significant difference
same,Clinical score of experimental EBA,"experimental EBA [6]; combined results of experiments 1 and 2 (FIG. 5), all doses",ameliorated disease
same,"reduction of percentage ABSA compared with previously tested agents (Zileuton, methylprednisolone)","experimental EBA [6]; comparison with similar earlier experiments, particularly at 2.5 mg/kg and 0.25 mg/kg",to a greater degree; also recorded: greater effect
same,Clinical score of experimental EBA,"experimental EBA [6]; experiment 1 (FIG. 3), all doses of Coversin, vs vehicle control group and methylprednisolone group",ameliorated disease
same,Clinical score of experimental EBA,"experimental EBA [6]; experiment 2 (FIG. 4), all doses of Coversin, vs vehicle control group and methylprednisolone group",ameliorated disease
same,significance of effect compared to vehicle control group,"experimental EBA [6]; experiment 2 (FIG. 4), only at the 2.5 mg/kg dose",significant effect
same,difference in ABSA between vehicle and treated,"experimental EBA [6]; first experiment, 0.25 mg/kg dose, P 0.0023 by two tailed t-test",63%
same,mean ABSA score (SD),"experimental EBA [6]; first experiment, 0.25 mg/kg dose, day 10, vehicle 6.23+1.1",2.65+0.4
same,percentage ABSA,"experimental EBA [6]; first experiment, Coversin 25 μg/kg s.c. twice daily",reduced
same,percentage ABSA,"experimental EBA [6]; first experiment, Coversin 250 μg/kg s.c. twice daily",further reduced
same,percentage ABSA,"experimental EBA [6]; first experiment, Coversin 2500 μg/kg s.c. twice daily",further reduced
same,"IC50, binding C5 and preventing its cleavage by C5 convertase",C5 [7],approximately 0.02 mg/ml
same,Kd,C5 [8],1 nM
same,Clinical score of experimental EBA,"experimental EBA [9]; Example 4, experiment 1 (FIG. 6A)",ameliorated disease
same,Clinical score of experimental EBA,"experimental EBA [9]; Example 4, experiment 2 (FIG. 6B)",ameliorated disease
same,statistical significance of effect on ABSA,experimental EBA [9]; second experiment (FIG. 6B),statistically significant effect
"L-Coversin: SEQ ID NO: 23; SEQ ID NO: 4 with Ala44Asn, Met116Gln, Leu117Ser, Gly121Ala, Leu122Asp, Glu123Ala, Asp149Gly (protein, Coversin variant 2) DSESDCTGSEPVDAFQAFSEGKEAYVLVRSTDPKARDCLKGEPNGEKQDNTLPVMMTFKNGTDWASTDWTFTLDGAKVTATLGNLTQNREVVYDSQSHHCHVDKVEKEVPDYEMWQSDAGADAVEVECCRQKLEELASGRNQMYPHLKGC",C5 binding,C5 [10],does not bind C5
same,LTB4 binding,[11],binds LTB4
